# Source: patent US20140294849A1, “COMPOSITIONS AND USES” (GLAXOSMITHKLINE BIOLOGICALS SA, priority 2011, published 2014)
# Columns and labels:
# [1] = system: CD11b+ peripheral blood monocytes; test: Ex vivo uptake assay of Aβ1-42; type: cell-based, C57BL/6 mice; conditions: Example 14; AS01B mouse full dose (5 ug per mouse) or CRX601 2 μg, i.m.
# Experimental: Preparation of cells: Peripheral blood was drawn from C57BL/6 mice via cardiac puncture with lithium-heparin as anticoagulant, 24-hours after injection of the adjuvants used herein. Red blood cell lysis was performed twice on pooled blood with Ammonium Chloride-based Buffer (Sigma, Steinheim, Germany) and cells were counted with the EasyCount™ System (Immunicon). […]
# FACS analysis: cells were harvested after incubation with fluorescent Aβ peptide with Trypsin/EDTA and cold PBS and washed three times. 500,000 cells were incubated in 96-well plate for 10 min. on ice in the presence of Rat anti-Mouse CD16/CD32 (clone 2.4G2—BD Fc Block™) and further stained for 30 min. with a combination of the following directly conjugated antibodies at their pre-determined optimal concentration: PE-Hamster anti-Mouse CD3 (clone 145-2C11), Rat anti-Mouse CD45R/B220 (clone RA3-6B2), Rat anti-Mouse Ly-6G (clone 1A8), Mouse anti-Mouse NK1.1 (clone PK136), APC-conjugated Rat anti-Mouse CD11b (clone M1/70), PE-Cy7-conjugated Hamster anti-Mouse CD11c (clone HL3), (all from BD PharMingen). […]
# Samples were acquired on a flow cytometer (BD FACSCanto II) and data analyzed with the FACSDiva software (BD Biosciences). […]
# [2] = system: spatial learning and memory; test: T-water maze in APP/PS1 mice; type: in vivo, APPSwe/PS1 mice
# Experimental: Five groups of APPSwe/PS1 mice received one a week for a period of 12 weeks the following treatment: • Gr1: APPSwe/PS1+NaCl 0.9% n(=20), i.p. injections • Gr4: APPSwe/PS1+CRX527 (20 μg/mouse, 130 μl, n=10), i.p. injections • Gr5: […] (50 μg/mouse, 130 μl, n=10), i.p. injections • Gr8 APPSwe/PS1+AS15 ( 1/10th of human dose, 50 μl, n=10), i.m. injections • Gr9: APPSwe/PS1+AS01B ( 1/10th of human dose, 50 μl, n=10), i.m. injections
# Mice were tested during the “light on” phase of the day. Behavioral experimenter was blinded to the genetic and treatment status of animals. To assess hippocampal-dependent spatial learning and memory, mice were trained in the T-water maze task. In this paradigm, we evaluate the mouse's ability to remember the spatial location of submerged platform. The T-maze apparatus (length of stem, 64 cm; length of arms, 30 cm; width, 12 cm; height of walls, 16 cm) was made of clear fiberglass and filled with water (23±1° C.) at a height of 12 cm. A platform (11×11 cm) was placed at the end of the target arm and was submerged 1 cm below the surface. The acquisition phase allows to evaluate animals for left-right spatial learning. During the first two trials, platforms were placed on each arms of the maze to test the spontaneous turning preference of the mouse. After these two trials, the least chosen arm was reinforced by the escape platform. The mice were placed in the stem of the T-maze and choose to swim either left or right until they found the submerged platform and escape to it, to a maximum of 60 s. After reaching the platform, the mice remained on it for 20 s and then were immediately placed back in the maze. […] Repeated trials were presented on the same day up to a maximum of 48 trials. A rest period of at least 10-15 min intervened between each block of 10 trials. A mouse was considered to have learned the task when it made no errors in a block of five consecutive trials. The reversal learning phase was then conducted 48 h later. During this phase, the same protocol was repeated, except that the mice were trained to find the escape platform on the opposite side to that on which they had learned on acquisition phase. The number of trials to reach the criterion (five of five correct choices made on consecutive trials) was measured as well as the latency to find the escape platform.
smiles,measurement,setting,value
CCCCCCCCCCC[C@H](CC(=O)N[C@H]1[C@H](OC[C@H](NC(=O)C[C@@H](CCCCCCCCCCC)OCCCCCCCCCC)C(=O)O)O[C@H](CO)[C@@H](OP(=O)(O)O)[C@@H]1OC(=O)C[C@@H](CCCCCCCCCCC)OCCCCCCCCCC)OCCCCCCCCCC [CRX601],ex vivo uptake of Aβ42 by monocytes compared to PBS group,[1],higher amount of Aβ42
same,behaviour as assessed by T water maze testing,"[2]; Example 21, twelve weekly injections, vs non treated mice",significant improvements in behaviour
same,"cognitive functions, T-water maze","[2]; Example 22, i.m. 12x weekly, CRX601 2 μg, CRX601 2 ug in AS03, 3D MPL 5 ug, AS01B 1/10 human dose, vs PBS, unpaired t-tests",significant improvement of their cognitive functions
